# Measurements taken from US12428370B2, “Haloallylamine dual amine oxidase inhibitors” (Syntara Limited, priority 2020, dated 2025).
# Counter-ions that a name gives are not always drawn.
# Key:
# [1] = target: T1, Rat Adipose Tissue SSAO/VAP-1 (Rattus norvegicus, UniProt O08590); experiment: Rat adipose tissue SSAO/VAP-1 activity after oral administration; format: in vivo, Sprague Dawley rats; conditions: single oral dose 0.6 mg/kg, Sprague Dawley rat adipose tissue, FIG. 2
# T1 construct: Adipose tissue was homogenized in ice-cold HES buffer; from tissue; host or cells: gonadal fat of Sprague Dawley rats (homogenate supernatant)
# T1 sequence (O08590 1-763): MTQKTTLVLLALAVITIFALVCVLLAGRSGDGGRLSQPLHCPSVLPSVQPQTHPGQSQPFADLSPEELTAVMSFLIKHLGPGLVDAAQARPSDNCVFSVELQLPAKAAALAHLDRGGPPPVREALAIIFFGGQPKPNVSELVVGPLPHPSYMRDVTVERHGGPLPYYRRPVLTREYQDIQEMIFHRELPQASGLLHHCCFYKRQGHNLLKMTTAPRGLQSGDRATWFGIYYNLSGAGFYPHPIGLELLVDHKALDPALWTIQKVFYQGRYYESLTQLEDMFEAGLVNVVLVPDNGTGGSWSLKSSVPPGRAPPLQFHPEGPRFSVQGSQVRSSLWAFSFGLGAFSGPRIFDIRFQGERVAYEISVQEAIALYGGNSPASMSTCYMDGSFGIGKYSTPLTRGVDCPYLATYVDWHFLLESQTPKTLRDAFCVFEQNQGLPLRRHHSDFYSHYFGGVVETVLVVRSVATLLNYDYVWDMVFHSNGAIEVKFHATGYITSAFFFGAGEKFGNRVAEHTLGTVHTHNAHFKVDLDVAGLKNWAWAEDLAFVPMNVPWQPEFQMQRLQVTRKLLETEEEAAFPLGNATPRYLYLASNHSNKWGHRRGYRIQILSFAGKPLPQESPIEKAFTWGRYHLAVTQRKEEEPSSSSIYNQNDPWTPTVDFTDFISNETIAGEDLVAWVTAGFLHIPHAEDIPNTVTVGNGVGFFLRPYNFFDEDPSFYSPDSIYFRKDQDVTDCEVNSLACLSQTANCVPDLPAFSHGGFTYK
# Experimental: Sprague Dawley rats were orally administered the compound under study and sacrificed at various time points and gonadal fat and brain tissue collected.
# Adipose tissue was homogenized in ice-cold HES buffer (20 mM HEPES, 1 mM EDTA, sucrose 250 mM, proteases and phosphatases inhibitor, pH 7.4). Homogenate was then centrifuged at 2000 rpm for 5 minutes at 4° C. and the resultant supernatant portion (minus the lipid top layer) used for assay. SSAO/VAP-1 activity was determined by using a non-specific MAO inhibitor (e.g. pargyline) to establish the high signal and a mixture of non-specific MAO inhibitor and an SSAO/VAP-1 inhibitor (e.g. semicarbazide) to determine the low signal.
# Activity of the treated samples was analyzed using the fluorometric method described in EXAMPLE 9 for SSAO/VAP-1 activity and EXAMPLE 10 for MAO-B.
# [2] = target: T2, human recombinant SSAO/VAP-1 (Homo sapiens, UniProt Q16853); experiment: Inhibition of human recombinant SSAO/VAP-1 (Amplex Red fluorometric assay); format: biochemical; conditions: 30 min incubation, 37° C., benzylamine substrate
# T2 construct: a cloned cDNA template corresponding to residues 34-763 of human SSAO/VAP-1; TEV cleavage site (N); made in house
# T2 sequence (Q16853 34-763): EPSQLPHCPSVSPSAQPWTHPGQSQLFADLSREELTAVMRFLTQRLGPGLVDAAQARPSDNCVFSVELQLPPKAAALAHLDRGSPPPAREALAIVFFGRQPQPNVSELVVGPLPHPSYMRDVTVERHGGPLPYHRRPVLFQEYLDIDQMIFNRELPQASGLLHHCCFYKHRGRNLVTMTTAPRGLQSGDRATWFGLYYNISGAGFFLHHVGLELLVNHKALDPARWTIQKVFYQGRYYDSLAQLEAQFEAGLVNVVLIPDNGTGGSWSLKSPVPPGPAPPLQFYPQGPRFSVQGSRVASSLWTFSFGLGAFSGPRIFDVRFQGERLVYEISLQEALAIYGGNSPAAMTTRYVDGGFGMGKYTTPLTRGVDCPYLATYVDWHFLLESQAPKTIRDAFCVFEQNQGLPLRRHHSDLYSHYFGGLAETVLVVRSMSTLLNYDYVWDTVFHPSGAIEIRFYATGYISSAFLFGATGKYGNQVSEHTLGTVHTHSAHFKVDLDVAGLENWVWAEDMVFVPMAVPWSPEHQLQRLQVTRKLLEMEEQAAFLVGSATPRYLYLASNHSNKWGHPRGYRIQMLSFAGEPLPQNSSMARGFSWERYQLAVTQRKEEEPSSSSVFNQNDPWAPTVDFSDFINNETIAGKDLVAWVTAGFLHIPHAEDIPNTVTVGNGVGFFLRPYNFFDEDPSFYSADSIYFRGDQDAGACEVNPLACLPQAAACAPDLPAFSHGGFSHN
# Experimental: Method to Determine the Ability of Compounds of Formula I to Inhibit Human Recombinant SSAO/VAP-1
# Human recombinant SSAO/VAP-1 amine oxidase activity was determined using the method as described for monoamine oxidase, copper-containing amine oxidases and related enzymes (Holt A. and Palcic M., Nat. Protoc. 2006, 1, 2498-2505). Briefly, a cloned cDNA template corresponding to residues 34-763 of human SSAO/VAP-1, and incorporating a mouse Ig kappa (κ) signal sequence, N-terminal flag epitope tag and tobacco etch virus (TEV) cleavage site, was assembled in a mammalian expression vector (pLO-CMV) by Geneart AG. This vector containing human SSAO/VAP-1 residues was transfected into CHO-K1 glycosylation mutant cell line, Lec 8. A clone stably expressing human SSAO/VAP-1 was isolated and cultured in large scale. Active human SSAO/VAP-1 was purified and recovered using immunoaffinity chromatography. This was used as the source for SSAO/VAP-1 activity. A high-throughput colorimetric assay was developed using either 96 or 384 well format. Briefly, in a standard 96 well plate assay 50 μL of purified human SSAO/VAP-1 (0.25 μg/mL) in 0.1 M sodium phosphate buffer (pH 7.4) was added into each well. […] After 30 min incubation, 50 μL of the reaction mixture containing 600 μM benzylamine (Sigma Aldrich), 120 μM Amplex Red (Sigma Aldrich) and 1.5 U/mL horseradish peroxidase (Sigma Aldrich) prepared in 0.1 M sodium phosphate buffer (pH 7.4) were added to the corresponding well. The fluorescence unit (RFU) was read every 2.5 min for 30 min at 37° C. excitation 565 nm and emission 590 nm (Optima; BMG labtech). The slope of the kinetics for each well was calculated using MARS data analysis software (BMG labtech) and this value was used to deduce the IC50 value (Dotmatics).
SMILES,duration of inhibition of SSAO/VAP-1 enzyme activity [1],IC50 [2] [nM]
"NC/C(=C\F)C1Cc2ccccc2O1 (single isomer, unassigned; (-)) [PXS-5131, (−)-(E)-2-(2,3-Dihydrobenzofuran-2-Yl)-3-Fluoroprop-2-En-1-Amine Hydrochloride]",greater than 24 hours,
"N#Cc1ccc(OC/C(=C/F)CN)cc1 [Compound 1, (E)-4-((2-(aminomethyl)-3-fluoroallyl)oxy) benzonitrile]",,< 10
